Measured values from patent US8124654B2, “Derivatives of hypoestoxide and related compounds” (Immune Modulation, Inc., priority 2008, dated 2012).

Tests used:
[1] = test system: P. falciparum CQ-Resistant (W2 MR4); test: In vitro malaria parasite development, 3H-hypoxanthine uptake, CQ-resistant strain; format: cell-based; details: for IC50: 48 h exposure from ring stage, 3H-hypoxanthine uptake, geometric mean
Method: (§1) Parasite cultures were exposed to different concentrations of Formula IV or hypoestoxide (from 100× stocks in DMSO) for 48 h, beginning at the ring stage. Concentrations yielding 50% inhibition (IC50) were extrapolated from plots of mean percent negative control activity over inhibitor concentration as measured by the uptake of ^3H-hypoxanthine. Data was analyzed after logarithmic transformation and expressed as the geometric mean IC50 and 95% confidence intervals.
(§2) Other anti-parasitic agents such as sesquiterpene artemisinin, chloroquine, mixtures thereof, and the like, can also be administered in appropriate doses along with the compounds of formula I-IV.

[2] = test system: P. falciparum CQ-Sensitive (3D7); test: In vitro malaria parasite development, 3H-hypoxanthine uptake, CQ-sensitive strain; format: cell-based; details: for IC50: 48 h exposure from ring stage, 3H-hypoxanthine uptake, geometric mean
Method: as §1, §2

[3] = test system: P. berghei berghei (EI strain); test: In vivo effect in malaria-infected mice (blood parasitemia); details: female mice, 5 mg/Kg oral once daily for 3 days; Giemsa-stained blood smears
Method: Five female mice per group were infected i.p. with 1×10^5P. berghei berghei (EI strain) parasitized RBCs and 3 days later, oral therapy was started at 5 mg/Kg once daily with either Formula IV or Chloroquine for 3 days. […], blood parasitemia was evaluated on each mouse on Giemsa-stained smears.

B16F1 melanocytes = test: Inhibition of lung colonization of B16F1 melanocytes in mice; format: in vivo, C57BL/6 Mice; details: 5 mg/Kg oral once daily for 10 days; lungs counted on day 16; versus vehicle control
Method: 1×10^5 melanoma cells were injected intravenously into the lateral tail vein of each of 30 mice. Before treatment, mice were randomized into six groups of 5 mice per group. Treatment began one hour after intravenous inoculation of the tumor cells. Drugs, at 5 mg/Kg were administered via oral route, once daily for 10 days. Treatment was stopped on day 10. On day 16, lungs were removed and fixed in 10% formaldehyde. The surface melanoma colonies were counted for each lung and the means were established for each group. The mean for each group was used to calculate % inhibition based on the vehicle control.

IL-6 production = IL-6 production in LPS-stimulated human peripheral blood macrophages (ELISA); format: cell-based
Excerpt: At the end of 24-hour culture, supernatants were removed and tested for the presence of IL-6 by enzymne-linked immunosorbent assay.

IL-1β production = test: Inhibition of IL-1β production; format: cell-based
IL-12 production = test: Inhibition of IL-12 production; format: cell-based
TNF-α production = test: Inhibition of TNF-α production; format: cell-based
[4] = ratio of IC50 versus hypoestoxide

Compound | IC50 [1] | times more active than the parent hypoestoxide against the CQ-resistant strain [1, 4] | IC50 [2] | times more active than hypoestoxide against the CQ-sensitive strain [2, 4] | Reduction of Parasitemia (%) [3] | Inhibition (%) of lung melanoma colonies (B16F1 melanocytes) | Inhibition (%) of IL-6 production (IL-6 production; 10 μM, LPS 3 μg/ml, 24 h) | IL-6 (IL-6 production; 10 μM, LPS 3 μg/ml, 24 h culture supernatant, LPS alone 1200 pg/ml) | inhibition of IL-6 (in words) (IL-6 production; statement of the summary, no conditions given) | inhibition of IL-1β production (in words) (IL-1β production) | inhibition of IL-12 production (in words) (IL-12 production) | inhibition of TNF-α production (in words) (TNF-α production)
12,18-dihydrohypoestoxide [Formula IV] | 0.12 µM | 88 times | 1.4 µM | about 7 times | 92% | 65% |  |  |  |  |  | 
CCN(CC)CCCC(C)Nc1ccnc2cc(Cl)ccc12 (stereo not shown) [Chloroquine] |  |  |  |  | 96% |  |  |  |  |  |  | 
C=C1C(=O)C[C@H]2C[C@@H]3O[C@@]3(C)CC[C@@H]3O[C@@]3(C)C[C@@H](OC(C)=O)[C@H]1C2(C)C [Hypoestoxide, hypoestoxide] | 10.6 µM |  | 10 µM |  |  | 70% | 96% | 50 pg/mL | inhibits | inhibits | inhibits | inhibits
